Source: patent US9173869B2, “Mediators of hedgehog signaling pathways, compositions and uses related thereto” (CURIS, INC., priority 1999, dated 2015)
pIC50: −log10 of the molar value.

Tests used:
[1] = system: Hedgehog pathway (Shh-induced Gli-transcription activity) in 10T1/2(s12) cells; assay: Gli-Luc assay (high-throughput screening, Hedgehog-responsive luciferase reporter); format: cell-based; settings: Gli-Luc response, OCT-SHH 0.3 μg/ml, about 24 h
Experimental: Compounds to be tested are dissolved in DMSO to a concentration of 10 mM, and stored at −20° C. To activate the Hedgehog pathway in the assay cells, an octylated (lipid-modified) form of the N-terminal fragment of the Sonic Hedgehog protein (OCT-SHH) is used. This N-terminal SHH fragment is produced bacterially. The octylation involves reaction of the N-terminal fragment, via its amino-terminal cysteine moiety, with octyl maleimide.
Compounds may be tested in the “Gli-Luc” assay below, using the cell line 10T(s12), wherein the cells contain a Hedgehog-responsive reporter construct utilizing Luciferase as the reporter gene. In this way, Hedgehog pathway signaling activity can be measured via the Gli-Luc response.
10t1/2(s12) cells are plated in a 96-well micro-titer plate (MTP) at 20,000 cells/well in full medium [DMEM with 10% FBS]. Then plates are placed in the incubator for incubation overnight (O/N), at 37° C. and 5% CO2. After 24 h, the medium is replaced with Luciferase-assay medium (DMEM with 0.5% FBS). Compounds are thawed and diluted in assay medium at 3:1000 (about 300-fold) resulting in a starting concentration of about 30 μM.
Subsequently, 150 μl of each 30 μM sample is added to the first wells (in triplicate). The MTP samples are then diluted at 3-fold dilutions to a total of seven wells, ultimately resulting in a regiment of seven dilutions in triplicate, for each compound. Next, the protein ligand OCT-SHH is diluted in Luciferase-assay medium and added to each well at a final concentration of 0.3 μg/ml. Plates are then returned to the incubator for further incubation O/N, at 37° C. and 5% CO2. After about 24 h, plates are removed from the incubator and the medium is aspirated/discarded. Wells are washed once with assay buffer [PBS+1 mM Mg^2+ and 1 mM Ca^2+]. Then 50 μl of assay buffer is added to each well. The Luciferase assay reagent is prepared as described by the vendor (LucLite kit from Packard), and 50 μl is added to each well. Plates are incubated at room temperature (RT) for about 30 minutes after which the signals are read, again at RT, on a Topcount (Packard).

[2] = system: murine BCC lesions; assay: Cultured skin punches with BCC lesions from UV-irradiated Ptc-knockout heterozygote mouse (X-gal staining); format: cell-based
Experimental: Mouse 456 is a Ptc-knockout heterozygote that received UV irradiation for 6 months. The mouse developed many small BCC lesions, which were blue after X-gal staining. The mouse was sacrificed and the skin was excised with a 2 mm skin punch. Those skin punches were then cultured for 6 days. […] The effect was more obvious when 10 μM of 11 was added to the culture medium instead of 5 μM of 11.

[3] = system: gli-1 mRNA in ptc-null cells; assay: Ptc-null assay (RT-PCR / quantitative real-time PCR of gli-1 mRNA); format: cell-based, mouse; settings: ptc-null cells cultured 3 days, compared with vehicle; for expression of gli-1: 1 μM of test compound
Experimental: Ptc-null cells were cultured for 3 days in the presence of vehicle; jervine, a known Patched pathway antagonist (i) used here as a positive control; or 1 μM of a test compound. Total ribonucleic acid (RNA) was isolated from the cells and used for reverse transcriptase-polymerase chain reaction (RT-PCR). […] The gli-1 and actin mRNA samples were then loaded on 1.5% agarose gel and were detected by staining with ethidium bromide. The same samples were analyzed by the quantitative real-time polymerase chain reaction method to quantify the levels of gli-1 mRNA.

[4] = system: ptc-1 lacZ reporter gene expression in lung explants; assay: E12.5 ptc-1 (d11) lacZ lung explant culture, lacZ staining; format: cell-based, mouse; settings: lung explants grown 48 hrs, versus untreated control
Experimental: In yet another experiment, E12.5 old ptc-1 (d11) lacZ lungs were harvested and transgenic embryos identified by lacZ detection using tails. Lung explants were grown submerged in mouse explant medium (DMEM based, additives optimized for the culture of mouse lungs) for 48 hrs, fixed in lacZ fixative, rinsed and stained for lacZ O/N at 37° C. Control tissue was untreated, while test tissue was treated with 11. Results are depicted in FIG. 34: (A) Untreated control. Strong lacZ expression can be observed in distal and proximal mesenchyme.

CC(c1nc2ccccc2c(=O)n1-c1ccc(F)cc1)N(C)C(=O)Nc1ccc([N+](=O)[O-])c(Cl)c1 (stereo not drawn) [Compound 62]
pIC50 [1]: > 6.00

CC(NC(=O)Nc1cccc(C(F)(F)F)c1)c1nc2ccccc2c(=O)n1-c1ccc(F)cc1 (stereo not drawn) [Compound 73]
pIC50 [1]: > 5.30

CCC(c1nc2ccccc2c(=O)[nH]1)N1CCN(C(=O)c2ccc(-c3ccccc3)cc2)C(C)C1 (stereo not drawn) [Compound 46]
pIC50 [1]: > 6.30

CC(c1nc2ccccc2c(=O)n1-c1ccc(F)cc1)N(C)C(=O)Nc1ccc(C(F)(F)F)cc1 (stereo not drawn) [Compound 54]
pIC50 [1]: > 5.30

CCCCc1ccc(C(=O)N(Cc2ccccc2)C(CC)c2nc3ccccc3c(=O)n2-c2ccc(C)cc2)cc1 (stereo not drawn) [Compound 40]
pIC50 [1]: > 5.00

CCC(c1nc2ccccc2c(=O)[nH]1)N1CCN(C(=O)Nc2ccc(Cl)c(Cl)c2)C(C)C1 (stereo not drawn) [Compound 45]
pIC50 [1]: > 5.30

CCCN(C(=O)Nc1cccc(Cl)c1)C(C)c1nc2ccccc2c(=O)n1-c1ccc(F)cc1 (stereo not drawn) [Compound 34]
pIC50 [1]: > 5.30

CCC(c1nc2ccccc2c(=O)n1-c1ccc(C)cc1)N(CCc1ccccc1)C(=O)CCCCF (stereo not drawn) [Compound 39]
pIC50 [1]: > 5.30

CC(c1nc2ccccc2c(=O)n1-c1ccc(F)cc1)N(C)C(=O)Nc1ccc([N+](=O)[O-])cc1Cl (stereo not drawn) [Compound 64]
pIC50 [1]: > 5.00

CC(c1nc2ccccc2c(=O)n1-c1ccc(F)cc1)N(C)C(=O)Nc1ccc(Cl)c(C(F)(F)F)c1 (stereo not drawn) [Compound 61]
pIC50 [1]: > 6.00

CC(c1nc2ccccc2c(=O)n1-c1ccc(F)cc1)N(Cc1ccco1)C(=O)Nc1cccc(F)c1 (stereo not drawn) [Compound 31]
pIC50 [1]: > 5.00

CC(c1nc2ccccc2c(=O)n1-c1ccc(F)cc1)N(C)C(=O)Nc1cccc(C#N)c1 (stereo not drawn) [Compound 51]
pIC50 [1]: > 5.30

CC(c1nc2ccccc2c(=O)n1-c1ccc(F)cc1)N1CCN(C(=O)Nc2ccc(Cl)c(Cl)c2)CC1 (stereo not drawn) [Compound 43]
pIC50 [1]: > 5.00

O=C(NCc1nc2ccccc2c(=O)n1-c1ccc(F)cc1)Nc1ccc(Cl)c(Cl)c1 [Compound 68]
pIC50 [1]: > 6.00

CC(c1nc2ccccc2c(=O)n1-c1ccc(F)cc1)N(C)C(=O)Nc1cccc(C(F)(F)F)c1 (stereo not drawn) [Compound 11, 2-{1′-[N-(3″-trifluoromethylphenylcarbamoyl)-N-methyl-amino]ethyl}-3-(4′″fluorophenyl)-quinazolin-4-one]
effect on BCC lesions at 10 μM instead of 5 μM ([2]; 10 μM versus 5 μM in culture medium, 6 days): more obvious
number and size of BCC lesions (blue spots) ([2]; skin punches of mouse 456 cultured for 6 days, compared to vehicle (DMSO), 5 or 10 μM): can decrease the number and size of BCC lesions
expression of gli-1 [3]: no significant decrease
pIC50 [1]: > 5.30
lacZ reporter gene expression [4]: significantly decreased reporter gene expression

CCCCCCCCC(=O)N(CCCCC)C(C)c1nc2ccccc2c(=O)n1-c1ccccc1 (stereo not drawn) [Compound 41]
pIC50 [1]: > 5.00

O=C(NCc1nc2ccccc2c(=O)n1-c1ccc(F)cc1)Nc1cccc(C(F)(F)F)c1 [Compound 44]
pIC50 [1]: > 6.00

O=C(NCc1nc2ccccc2c(=O)n1-c1ccc(F)cc1)Nc1ccc(Cl)c([N+](=O)[O-])c1 [Compound 69]
pIC50 [1]: > 6.30

CC(c1nc2ccccc2c(=O)n1-c1ccc(F)cc1)N(C)C(=O)Nc1cccc(SC(F)(F)F)c1 (stereo not drawn) [Compound 52]
pIC50 [1]: > 6.00

Cc1c(NC(=O)N(C)C(C)c2nc3ccccc3c(=O)n2-c2ccc(F)cc2)cccc1[N+](=O)[O-] (stereo not drawn) [Compound 59]
pIC50 [1]: > 5.30

CCCN(C(=O)Nc1cccc(OC)c1)C(C)c1nc2ccccc2c(=O)n1-c1ccc(F)cc1 (stereo not drawn) [Compound 38]
pIC50 [1]: > 5.30

CC(c1nc2ccccc2c(=O)n1-c1ccc(F)cc1)N(C)C(=O)Nc1cccc(F)c1 (stereo not drawn) [Compound 55]
pIC50 [1]: > 5.30

CCC(C)N(CCC(=O)NC1CCCc2ccccc21)C(=O)c1cccc2ccccc12 (stereo not drawn) [Compound 48]
expression of gli-1 [3]: no significant decrease
pIC50 [1]: > 6.30

CCC(=O)N1CCN(C(CC)c2nc3ccccc3c(=O)n2-c2ccc(C)cc2)C(C)C1 (stereo not drawn) [Compound 42]
pIC50 [1]: > 5.30

CCC(C)N(CCC(=O)NC1CCCc2ccccc21)C(=O)COc1ccc(Cl)cc1 (stereo not drawn) [Compound 49]
expression of gli-1 [3]: no significant decrease
pIC50 [1]: > 6.00

O=C(Nc1cccc(C(F)(F)F)c1)NC(c1nc2ccccc2c(=O)n1-c1ccc(F)cc1)C1CC1 (stereo not drawn) [Compound 75]
pIC50 [1]: > 5.30

CCOC(=O)c1ccccc1NC(=O)N(C)C(C)c1nc2ccccc2c(=O)n1-c1ccc(F)cc1 (stereo not drawn) [Compound 63]
pIC50 [1]: > 5.00

CCCN(C(=O)Nc1cccc(C(F)(F)F)c1)C(C)c1nc2ccccc2c(=O)n1-c1ccc(F)cc1 (stereo not drawn) [Compound 36]
pIC50 [1]: > 5.30

O=C(Cc1cccc(C(F)(F)F)c1)NCCc1nc2ccccc2c(=O)n1-c1ccc(F)cc1 [Compound 50]
pIC50 [1]: > 6.00

COc1cccc(NC(=O)NCc2nc3ccccc3c(=O)n2-c2ccc(F)cc2)c1C [Compound 71]
pIC50 [1]: > 5.00

CC(C)c1cccc(NC(=O)N(C)C(C)c2nc3ccccc3c(=O)n2-c2ccc(F)cc2)c1 (stereo not drawn) [Compound 57]
pIC50 [1]: > 5.00

CC1=C2C(=O)[C@H]3[C@@H](CC=C4C[C@@H](O)CC[C@@]43C)[C@@H]2CC[C@]12O[C@@H]1C[C@H](C)CN[C@H]1[C@H]2C [jervine, reference compound]
expression of gli-1 mRNA ([3]; positive control): significantly decreased

CC(c1nc2ccccc2c(=O)n1-c1ccc(F)cc1)N(C)C(=O)Nc1ccc(-c2ccccc2)cc1 (stereo not drawn) [Compound 56]
pIC50 [1]: > 5.00

CC(c1nc2ccccc2c(=O)n1-c1ccc(F)cc1)N(C)C(=O)Nc1ccc([N+](=O)[O-])c(C(F)(F)F)c1 (stereo not drawn) [Compound 32]
pIC50 [1]: > 5.30

CCCN(CCC(=O)NC1CCCc2ccccc21)C(=O)c1cc(OC)cc(OC)c1 (stereo not drawn) [Compound 47]
expression of gli-1 [3]: no significant decrease
pIC50 [1]: > 5.30

CC(c1nc2ccccc2c(=O)n1-c1ccc(F)cc1)N(C)C(=O)Nc1ccc(Cl)cc1[N+](=O)[O-] (stereo not drawn) [Compound 66]
pIC50 [1]: > 5.00

CC(c1nc2ccccc2c(=O)n1-c1ccc(F)cc1)N(C)C(=O)Nc1ccc(Cl)c(Cl)c1 (stereo not drawn) [Compound 53]
pIC50 [1]: > 6.00

O=C(NCc1nc2ccccc2c(=O)n1-c1ccc(F)cc1)Nc1cc(Cl)nc(Cl)c1 [Compound 6, 1-(2,6-Dichloro-pyridin-4-yl)-3-[3-(4-fluoro-phenyl)-4-oxo-3,4-dihydro-quinazolin-2-ylmethyl]-urea]
pIC50 [1]: > 6.30

O=C(NCCCc1nc2ccccc2c(=O)n1-c1ccc(F)cc1)Nc1cccc(C(F)(F)F)c1 [Compound 74]
pIC50 [1]: > 5.30

CC(c1nc2ccccc2c(=O)n1-c1ccc(F)cc1)N(C)C(=O)Nc1ccc(SC(F)(F)F)cc1 (stereo not drawn) [Compound 60]
pIC50 [1]: > 5.30

CCOOC(=O)c1cccc(NC(=O)N(C)C(C)c2nc3ccccc3c(=O)n2-c2ccc(F)cc2)c1 (stereo not drawn) [Compound 65]
pIC50 [1]: > 5.00

O=C(NCc1nc2ccccc2c(=O)n1-c1ccc(F)cc1)Nc1ccc(Cl)c(C(F)(F)F)c1 [Compound 5, 1-(4-Chloro-3-trifluoromethyl-phenyl)-3-[3-(4-fluoro-phenyl)-4-oxo-3,4-dihydro-quinazolin-2-ylmethyl]-urea]
pIC50 [1]: > 7.00

CC(c1nc2ccccc2c(=O)n1-c1ccc(F)cc1)N(C)C(=O)Nc1cc(Cl)nc(Cl)c1 (stereo not drawn) [Compound 58]
pIC50 [1]: > 5.30

Cc1c(NC(=O)NCc2nc3ccccc3c(=O)n2-c2ccc(F)cc2)cccc1SC(F)(F)F [Compound 67]
pIC50 [1]: > 5.30
